Experimental data reported in patent US20210348164A1, “ENDOGENOUS CYTOPLASMIC ALU COMPLEMENTARY DNA IN AGE-RELATED MACULAR DEGENERATION” (University of Virginia Patent Foundation, priority 2018, published 2021).
“Also recorded” adds a separate entry of the source.

How the values were obtained:
[1] = system: Alu cDNA in ARPE-19 cells; experiment: Alu cDNA in ARPE-19 cells (Alu c-PCR, in situ hybridization); format: cell-based, human; settings: Alu c-PCR
Procedure: Cell culture and transfection. Primary mouse and human RPE cells were isolated as previously described (Kerur et al., 2018). All cells were maintained at 37° C. in a 5% CO2 environment. Mouse RPE cells were cultured in DMEM supplemented with 20% FBS and penicillin/streptomycin antibiotics at standard concentrations; primary human RPE cells were maintained in DMEM supplemented with 10% FBS and antibiotics. The human RPE cell line ARPE19 was cultured as previously described (Kerur et al., 2018) and maintained in DMEM-F12 containing penicillin/streptomycin, Fungizone, and gentamicin. HEK293T cells were cultured in DMEM with 10% fetal bovine serum (FBS) with 100 U/ml penicillin/streptomycin and 2 mM L-glutamine. […]
In situ hybridization. […] Visualization of fluorescein-labelled probe was performed with the TSA™ plus fluorescence system or the TSA™ plus Cy5 system (PerkinElmer). The fluorescent or Cy5 signals were detected using a Leica SP-5 or MR Nikon confocal microscope system. […]

[2] = system: Alu cDNA in primary human RPE cells; experiment: Alu cDNA in primary human RPE cells (Alu c-PCR, real-time PCR, in situ hybridization, equator blotting); format: cell-based; settings: primary human RPE cells; cytoplasmic fraction; Alu c-PCR
Procedure: Cell culture and transfection. Primary mouse and human RPE cells were isolated as previously described (Kerur et al., 2018). All cells were maintained at 37° C. in a 5% CO2 environment. Mouse RPE cells were cultured in DMEM supplemented with 20% FBS and penicillin/streptomycin antibiotics at standard concentrations; primary human RPE cells were maintained in DMEM supplemented with 10% FBS and antibiotics. The human RPE cell line ARPE19 was cultured as previously described (Kerur et al., 2018) and maintained in DMEM-F12 containing penicillin/streptomycin, Fungizone, and gentamicin. HEK293T cells were cultured in DMEM with 10% fetal bovine serum (FBS) with 100 U/ml penicillin/streptomycin and 2 mM L-glutamine. Primary wild-type mouse bone marrow-derived macrophages (BMDMs) were isolated, and cultured in Iscove's Modified Dulbecco's Medium (IMDM) supplemented with 30% L929 supernatant containing macrophage-stimulating factor, nonessential amino acids, sodium pyruvate, 10% FBS and antibiotics, 50 μM β-mercaptoethanol (Seo et al., 2015), and serum starved in IMDM with 1% FBS and 100 U/ml penicillin/streptomycin overnight prior to LPS stimulation. NRTIs or NNRTIs were added 30 minutes prior to LPS stimulation and again 30 minutes prior to ATP activation. LPS (100 ng/mL) was added for 3-4 hours prior to the addition of ATP. Cell lysates were collected 30 minutes after addition of ATP (5 mM). Primary human subcutaneous pre-adipocytes (Catalogue No. PCS-210-010, ATCC, Manassas, Va., United States of America) and primary human dermal fibroblasts (Catalogue No. PCS-201-012, ATCC) were grown in fibroblast basal medium with fibroblast growth kit for low serum (ATCC).
Umbilical artery vascular smooth muscle cells (Catalogue No. CC-2579, Lonza, Morristown, N.J., United States of America) were grown in SMGM™-2 Smooth Muscle Growth Medium-2 BULLETKIT™ (Lonza). Primary human skeletal myoblasts (Catalogue No. A11440, Thermo Fisher Scientific) were grown in DMEM with 2% horse serum. Primary human epidermal keratinocytes (Catalogue NO. CO215C, Thermo Fisher Scientific) were grown in EPILIFE® Medium (Thermo Fisher Scientific). Human umbilical vein endothelial cells (HUVEC) were grown in HUVEC EGM™-2 Media (Lonza). Primary human peripheral blood mononuclear cells (Catalogue NO. PCS-800-011, ATCC) were directly used without culture for experiments. RPMI 1640 medium with 10% human serum with human GM-CSF (Miltenyi Biotec Inc., Auburn, Calif., United States of America) was used as media during the experiment. Transfections were performed according to the manufacturer's instructions (LIPOFECTAMINE® 2000, Invitrogen). For transfection of primary human peripheral blood mononuclear cells, HiPerFect Transfection Reagent (Qiagen) was used as previously described (Troegeler et al., 2014). NRTIs were administered 60 minutes before transfection and added again upon replacement of media at 8 hours. To induce acid injury or osmotic stress, primary human RPE cells were treated with HCl (pH 4.0 media) or H2O for 30 minutes, 1 hour, and 2 hours at 37° C. in 5% CO2, respectively. NIH3T3 Tet-ON cells were cultured in DMEM with 10% tetracycline-free fetal bovine serum (FBS) with 100 U/ml penicillin/streptomycin. NIH3T3 Tet-ON cells were transfected with pLD401 (see Taylor et al., 2013; gift of J. D. Boeke, Institute for Systems Genetics, NYU Langone Health, New York, New York, United States of America) and human L1 ORF1p abundance was monitored after 24 hours of doxycycline induction. […]

reverse transcriptase = settings: Fowler et al., 2014; Ambati et al., 2018; cited from earlier work
[3] = system: reverse transcriptase activity of cytoplasmic fractions of F9 cells; experiment: In vitro reverse transcriptase activity of cytoplasmic fractions (Alu RNA-templated, Alu-specific qPCR); format: biochemical, mouse
Procedure: In vitro reverse transcriptase (RT) activity. In vitro reverse transcriptase (RT) activity in nuclear and cytoplasmic protein fractions was assessed using an Alu RNA-templated reaction. The RT reaction was carried out in a 20 μl reaction mix containing Alu RNA template (10 ng); Alu primer ([…]); dNTPs mix; cytoplasmic or nuclear protein, and Quantiscript RT Buffer (Qiagen). The reaction mixture was incubated at 42° C. for 30 minutes. The resulting cDNA was quantified by qPCR using Alu RNA template-specific primers. The reaction to evaluate self-priming activity of Alu RNA was carried out in the absence of priming oligos in a 20 μl reaction mix containing: Alu RNA with 3′-U tail; dNTP mix; cytoplasmic protein from mouse RPE cells; and Quantiscript RT Buffer (Qiagen) as described above. The resulting cDNA product was quantified by qPCR using Alu RNA template-specific primers. Alu RNA tailed on the 3′ end with chain terminator dideoxy thymidine base (ddTTP) was generated using TdT (New England Biolabs (NEB)) according to the manufacturer's instructions. Alu RNA tailed on the 3′ end with chain terminator cordycepin tri-phosphate was generated using PAP (NEB) according to the manufacturer's instructions.

Row | Molecule | Endogenous Alu cDNA abundance [1] | Endogenous Alu cDNA abundance [2] | inhibition of reverse transcriptase (reverse transcriptase) | Alu cDNA formation from Alu RNA (reverse transcriptase activity) [3]
1 | Cc1cn([C@H]2C=C[C@@H](CO)O2)c(=O)[nH]c1=O [d4T, 2′,3′-didehydro-2′,3′-dideoxythymidine] | reduced | dramatically decreased Alu cDNA levels; also recorded: reduced |  | 
2 | azidothymidine triphosphate [AZT-TP] |  |  | inhibits reverse transcription | reduced Alu cDNA synthesis; also recorded: reduced Alu cDNA formation
